Test system: HMOX1 expression in H4 cell line
Assay: HMOX1 gene expression by qRT-PCR in H4 cell line treated with 5-aza-2′-deoxycytidine
Type: cell-based, human
Details: normal H4 cell line, 10 μM for 3 days, normalized to GAPDH
Experimental: Human neuroglioblastoma cell line, H4 was cultured in a Dulbecco's modified Eagle medium containing 10% fetal bovine serum, 100 U/mL penicillin, 100 μg/mL streptomycin and 2 mM L-glutamine, and APP695-Swedish mutant (K595N/M596L)-expressing Alzheimer's disease model cell line, H4-sw was cultured in the H4 culture medium supplemented with 500 μg/mL geneticine.
Total RNAs were extracted from the cell line and the brain tissues using an RNeasy mini kit (Qiagen). The extraction method was performed according to the manufacturer's manual. The extracted total RNAs were quantified using a spectrophotometer, and RNA degradation was examined by electrophoresis in a 1% agarose gel.
For cDNA synthesis, Superscript II reverse transcriptase (Invitrogen) was used. 1 μg of total RNA and 50 ng of oligo dT were denatured at 70° C. for 10 minutes, and then a reaction mixture of 4 μA of 5×RT buffer, 2 μA of […], 4 μA of 2.5 mM dNTP mixture, 200 units of Superscript II reverse transcriptase, 10 units of RNase inhibitor was added thereto. 20 μA of the reaction mixture was reacted at 25° C. for 10 minutes, at 42° C. for 50 minutes, and at 95° C. for 5 minutes for cDNA synthesis. The product was diluted at 1:4, and 2 μA thereof was used as a template of qRT-PCR. […]

With Nc1ncn([C@H]2C[C@H](O)[C@@H](CO)O2)c(=O)n1 [5-aza-2′-deoxycytidine] the HMOX1 expression was “increased”.
